Experimental data reported in the NIST ThermoML archive (doi:10.1021/je200609g).

Experiment: xn = mol fraction of the nth substance listed
Conditions: 101 kPa, Liquid; for mass density: Vibrating tube method

CCn1cc[n+](C)c1.O=S(=O)([O-])C(F)(F)F [1-ethyl-3-methylimidazolium trifluoromethanesulfonate] + C1CCOC1
Conditions	mass density, 278.15 K [kg/m3]	mass density, 288.15 K [kg/m3]	mass density, 298.15 K [kg/m3]	mass density, 308.15 K [kg/m3]	mass density, 318.15 K [kg/m3]	speed of sound, 278.15 K [m/s]	speed of sound, 288.15 K [m/s]	speed of sound, 298.15 K [m/s]	speed of sound, 308.15 K [m/s]	speed of sound, 318.15 K [m/s]
x1 = 0.051	964.39	953.89	943.29	932.59	921.76	1362.7	1316.9	1271.7	1227	1182.8
x1 = 0.1	1013.94	1003.61	993.23	982.77	972.18	–	1318.7	1275.5	1233.3	1191.4
x1 = 0.1503	1059.68	1049.68	1039.61	1029.5	1019.22	–	1325.4	1285.5	1246.5	1207.2
x1 = 0.2001	1098.67	1088.88	1079.04	1069.18	1059.3	1373.3	1334.8	1297.4	1260.7	1224.5
x1 = 0.3001	1166.19	1155.19	1145.24	1135.87	1126.45	1387.7	1353.8	1320.8	1288.7	1257.1
x1 = 0.3992	1217.18	1207.94	1198.76	1189.62	1180.52	1403.5	1372.7	1342.8	1313.3	1284.5
x1 = 0.4995	1261.1	1252.06	1243.08	1234.16	1225.28	1414.7	1388	1361.4	1335.5	1309.7
x1 = 0.599	1297.75	1288.87	1280.05	1271.3	1262.63	1432.5	1405.8	1379.9	1354.5	1329.9
x1 = 0.7014	1330	1321.24	1312.54	1303.92	1295.36	1446.6	1421.4	1396.8	1372.6	1349
x1 = 0.7965	1356.21	1347.55	1338.96	1330.44	1321.98	1459	1434.6	1410.8	1387.6	1365.1
x1 = 0.849	1369.15	1360.54	1352	1343.53	1335.11	1465.4	1441.4	1418.1	1395.2	1372.9
x1 = 0.899	1380.34	1371.78	1363.27	1354.82	1346.41	1470.5	1446.4	1423.1	1400.3	1378.1
x1 = 0.9511	1391.34	1382.83	1374.36	1365.93	1357.57	1476	1452.3	1429.2	1406.8	1384.9

CCn1cc[n+](C)c1.O=S(=O)([O-])C(F)(F)F [1-ethyl-3-methylimidazolium trifluoromethanesulfonate] + CC(C)O
speed of sound [m/s], Sing-around technique in a fixed-path interferometer
Conditions	278.15 K	288.15 K	298.15 K	308.15 K	318.15 K	328.15 K
x1 = 0.0499	1220.6	1188.2	1156.4	1124.5	1092.5	1060.1
x1 = 0.0996	1233.3	1203.2	1173.6	1143.9	1114.1	1084.3
x1 = 0.15	1249.7	1221.4	1193.3	1165.3	1137.2	1109
x1 = 0.2001	1267.9	1240.6	1213.7	1186.8	1159.9	1133
x1 = 0.2994	1305.6	1279.7	1254.2	1228.8	1203.6	1178.5
x1 = 0.4004	1341.7	1316.5	1291.8	1267.5	1243.3	1219.5
x1 = 0.4997	1373.6	1348.8	1324.7	1301	1277.6	1254.6
x1 = 0.5999	1401.7	1377.3	1353.6	1330.4	1307.7	1285.2
x1 = 0.7019	1426.3	1402.6	1379.4	1356.7	1334.4	1312.6
x1 = 0.7987	1447	1423.4	1400.5	1378.1	1356.2	1334.8
x1 = 0.8519	1458	1434.1	1411.2	1388.7	1366.7	1345.2
x1 = 0.8989	1465.9	1442.5	1419.8	1397.5	1375.9	1354.6
x1 = 0.9462	1474.3	1450.8	1428.1	1406	1384.3	1363.1

mass density [kg/m3]
Conditions	278.15 K	288.15 K	298.15 K	308.15 K	318.15 K	328.15 K
x1 = 0.0499	868.82	860.62	852.27	843.73	834.95	825.89
x1 = 0.0996	929.8	921.53	913.15	904.62	895.92	887.02
x1 = 0.15	984.2	975.84	967.41	958.87	950.21	941.42
x1 = 0.2001	1032.07	1023.66	1015.19	1006.67	998.06	989.35
x1 = 0.2994	1111.77	1103.29	1094.81	1086.3	1077.77	1069.21
x1 = 0.4004	1177.58	1169.07	1160.58	1152.12	1143.67	1135.22
x1 = 0.4997	1231.42	1222.91	1214.45	1206.03	1197.63	1189.27
x1 = 0.5999	1276.64	1268.13	1259.68	1251.27	1242.91	1234.58
x1 = 0.7019	1315.15	1306.65	1298.2	1289.82	1281.48	1273.2
x1 = 0.7987	1347.13	1338.64	1330.2	1321.82	1313.5	1305.24
x1 = 0.8519	1362.88	1354.39	1345.96	1337.58	1329.26	1320.99
x1 = 0.8989	1375.94	1367.46	1359.02	1350.65	1342.33	1334.07
x1 = 0.9462	1388.37	1379.89	1371.46	1363.08	1354.76	1346.5
